Key:
[1] = molecular target: T1, Fibroblast growth factor receptor 1 (Homo sapiens, UniProt P11362)
Description: Inhibition of the phosphorylation of a random glutamate-tyrosine (4:1) copolymer by isolated Fibroblast growth factor receptor 1.

[2] = molecular target: Platelet-derived growth factor receptor beta (Mus musculus, UniProt P05622)
Description: Inhibition of the phosphorylation of a random glutamate-tyrosine (4:1) copolymer by isolated mouse Platelet-derived growth factor protein.

[3] = test system: HUVEC; test: Inhibition of in vitro cell Human umbilical vein endothelial (HUVEC) cell proliferation
[4] = test system: C6; test: Inhibition of PDGF-dependent rat glioma C6 cell proliferation
[5] = test system: HUVEC; test: (§1) Inhibition of microcapillary growth in HUVEC cells; assay type: functional, cell-based; settings: Homo sapiens
[6] = test system: Ovarian cancer cell line; test: Inhibition of human ovarian carcinoma (A90) FGF-R overexpressing cell proliferation
[7] = molecular target: Proto-oncogene tyrosine-protein kinase Src (Gallus gallus) (UniProt P00523); test: Inhibition of the phosphorylation of a random glutamate-tyrosine (4:1) copolymer by isolated avian c-Src protein.
[8] = test system: M5076; test: Weight change in murine M5076 sarcoma tumor at 200 mg/kg peroral dose days 8-16; assay type: functional, organism-based; design: dose 200 mg/kg; settings: Mus musculus
[9] = test system: Mus musculus; test: Difference in days for treated (T) and control (C) tumors to reach 750 mg in mammary 16/c murine tumor at 80 mg/kg; assay type: functional
[10] = test system: Mus musculus; test: Difference in days for the treated (T) and control (C) tumors to reach 750 mg in lewis lung murine tumor at 200 mg/kg; assay type: functional
[11] = test system: Mus musculus; test: Weight change in mammary 16/c murine tumor at 200 mg/kg peroral dose for days 1-9; assay type: functional, organism-based; design: dose 200 mg/kg
[12] = test system: Mus musculus; test: Ratio of treated to control tumor mass on last therapy day in mammary 16/c murine tumor at 200 mg/kg dose; assay type: functional
[13] = test system: Lewis lung carcinoma cell line; test: Weight change in lewis lung murine tumor at 200 mg/kg peroral dose for days 4-12; assay type: functional, Mus musculus; settings: route oral
[14] = test system: HUVEC; test: Inhibition of Matrigel invasion assay in HUVEC cells; assay type: functional, cell-based; settings: Homo sapiens
[15] = test system: Mus musculus; test: Ratio of treated to control tumor mass on last therapy day in lewis lung murine tumor at 200 mg/kg dose; assay type: functional
[16] = test system: M5076; test: Difference in days for treated (T) and control (C) tumors to reach 750 mg in murine M5076 sarcoma tumor at 200 mg/kg; assay type: functional, Mus musculus
[17] = test system: Mus musculus; test: Difference in days for treated (T) and control (C) tumors to reach 750 mg in mammary 16/c murine tumor at 200 mg/kg; assay type: functional
[18] = test system: M5076; test: Ratio of treated to control tumor mass on last therapy day in M5076 sarcoma murine tumor at 200 mg/kg; assay type: functional, Mus musculus
[19] = test system: Mus musculus; test: Weight change in mammary 16/c murine tumor at 80 mg/kg peroral dose for schedule q12hx2, days 1-9; assay type: functional; settings: route oral
[20] = molecular target: T1, Fibroblast growth factor receptor 1; test: Inhibition of bFGF-mediated tyrosine phosphorylation; assay type: functional
[21] = test system: HUVEC; test: as §1; settings: Homo sapiens

T1 sequence (P11362 whole entry): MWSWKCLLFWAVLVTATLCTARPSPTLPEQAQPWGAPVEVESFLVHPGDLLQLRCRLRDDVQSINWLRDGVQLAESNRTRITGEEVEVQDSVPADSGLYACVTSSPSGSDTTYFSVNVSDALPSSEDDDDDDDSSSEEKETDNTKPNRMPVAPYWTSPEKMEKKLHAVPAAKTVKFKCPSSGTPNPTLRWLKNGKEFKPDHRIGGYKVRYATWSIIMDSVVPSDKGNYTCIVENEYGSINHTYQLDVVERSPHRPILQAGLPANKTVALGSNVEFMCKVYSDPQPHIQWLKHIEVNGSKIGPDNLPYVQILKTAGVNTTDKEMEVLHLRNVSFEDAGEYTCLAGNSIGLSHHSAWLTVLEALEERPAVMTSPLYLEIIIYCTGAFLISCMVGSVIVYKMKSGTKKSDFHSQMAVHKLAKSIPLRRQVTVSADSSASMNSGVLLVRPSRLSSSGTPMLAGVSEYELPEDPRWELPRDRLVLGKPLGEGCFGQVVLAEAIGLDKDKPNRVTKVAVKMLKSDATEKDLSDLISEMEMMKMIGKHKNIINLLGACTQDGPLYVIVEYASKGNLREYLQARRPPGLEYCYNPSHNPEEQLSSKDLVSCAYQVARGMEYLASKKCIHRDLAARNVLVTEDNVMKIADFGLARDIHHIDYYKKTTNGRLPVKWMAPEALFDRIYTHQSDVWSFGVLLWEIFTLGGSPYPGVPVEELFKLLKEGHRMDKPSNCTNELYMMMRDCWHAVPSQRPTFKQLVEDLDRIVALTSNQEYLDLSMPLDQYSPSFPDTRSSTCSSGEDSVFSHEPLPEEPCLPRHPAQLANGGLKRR
Sequence of Platelet-derived growth factor receptor beta (P05622 whole entry): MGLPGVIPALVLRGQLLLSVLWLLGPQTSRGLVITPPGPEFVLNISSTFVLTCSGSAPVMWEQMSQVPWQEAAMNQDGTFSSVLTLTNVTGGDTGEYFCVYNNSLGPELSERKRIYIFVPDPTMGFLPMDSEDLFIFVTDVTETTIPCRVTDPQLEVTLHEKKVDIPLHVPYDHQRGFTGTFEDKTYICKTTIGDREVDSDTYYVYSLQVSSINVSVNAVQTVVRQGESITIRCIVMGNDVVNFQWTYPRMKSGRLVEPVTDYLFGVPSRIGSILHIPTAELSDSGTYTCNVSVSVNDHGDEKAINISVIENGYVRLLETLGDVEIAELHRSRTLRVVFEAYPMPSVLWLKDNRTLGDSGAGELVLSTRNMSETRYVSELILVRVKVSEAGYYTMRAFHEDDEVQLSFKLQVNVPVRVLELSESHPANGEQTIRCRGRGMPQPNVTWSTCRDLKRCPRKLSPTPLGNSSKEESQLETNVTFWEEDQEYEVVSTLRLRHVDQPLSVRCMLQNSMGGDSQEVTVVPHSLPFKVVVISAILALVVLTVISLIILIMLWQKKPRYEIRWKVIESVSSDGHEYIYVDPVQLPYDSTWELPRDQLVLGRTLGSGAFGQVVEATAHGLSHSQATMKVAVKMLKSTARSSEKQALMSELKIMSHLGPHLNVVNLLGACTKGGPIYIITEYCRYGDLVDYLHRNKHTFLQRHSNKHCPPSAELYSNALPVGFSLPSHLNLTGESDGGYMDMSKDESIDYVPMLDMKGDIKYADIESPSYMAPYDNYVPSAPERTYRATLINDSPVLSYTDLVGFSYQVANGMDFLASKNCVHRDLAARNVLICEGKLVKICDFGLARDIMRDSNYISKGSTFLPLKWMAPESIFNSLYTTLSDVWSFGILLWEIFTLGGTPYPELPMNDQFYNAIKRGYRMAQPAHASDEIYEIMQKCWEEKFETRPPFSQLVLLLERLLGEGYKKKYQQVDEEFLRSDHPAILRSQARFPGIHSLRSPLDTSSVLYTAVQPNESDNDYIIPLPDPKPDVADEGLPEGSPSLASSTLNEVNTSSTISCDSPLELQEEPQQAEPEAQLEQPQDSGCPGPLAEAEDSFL

SMILES | IC50 [1] [nM] | IC50 [2] [nM] | IC50 [3] [nM] | IC50 [4] [nM] | IC50 [6] [nM] | further results
COc1cc(OC)cc(-c2cc3cnc(N)cc3nc2NC(=O)Nc2ccccc2)c1 | 510 | > 50000 |  |  |  | 
COc1cc(OC)cc(-c2cc3cnc(NC(=O)NC(C)(C)C)cc3nc2NC(=O)NC(C)(C)C)c1 | 160 | > 50000 | 17 | 13000 | 11000 | IC50 [5]: 10 nM
Nc1ncc2cc(-c3c(Cl)cccc3Cl)c(N)nc2n1 |  |  |  |  |  | IC50 [7]: 210 nM
Nc1cc2nc(N)c(-c3ccccc3)cc2cn1 | 17000 | 17000 |  |  |  | 
COc1cc(OC)cc(-c2cc3cnc(NC(=O)C(F)(F)F)cc3nc2N)c1 | 61 | > 50000 | 4900 | 9000 | 17000 | 
CCNC(=O)Nc1nc2cc(N)ncc2cc1-c1ccccc1 | 1300 | 7700 |  |  |  | 
COc1cc(OC)cc(-c2cc3cnc(NC(C)=O)cc3nc2NC(=O)NC(C)(C)C)c1 | 25 | 4700 | 4 | 650 | 12000 | Weight change [8]: Weight gain; T-C [9]: 10.8 days; T-C [10]: 0 days; Weight change [11]: Weight gain; T/C [12]: 0%; Weight change [13]: -0.4 g; IC50 [14]: 7 nM; T/C [15]: 109%; T-C [16]: 1 days; T-C [17]: 11.3 days; T/C [18]: 78%; Weight change [19]: -0.7 g; IC50 [5]: 0.01 nM
CCNC(=O)Nc1nc2cc(N)ncc2cc1-c1cc(OC)cc(OC)c1 | 29 | > 50000 | 170 | 8000 | 9300 | 
COC(=O)C1=C(c2ccccc2)c2ccccc2C1=O |  |  |  |  |  | IC50 [20]: 5100 nM
COc1cc(OC)cc(-c2cc3cnc(NCCCN4CCOCC4)cc3nc2NC(=O)NC(C)(C)C)c1 |  | 45000 | 85 | 3100 | 920 | IC50 [21]: 1 nM
CC(C)(C)NC(=O)Nc1nc2nc(N)ncc2cc1-c1c(Cl)cccc1Cl | 130 | 1100 |  |  |  | 
CCNC(=O)Nc1nc2cc(N)ncc2cc1-c1c(Cl)cccc1Cl | 150 | 11000 |  |  |  | 
CCNC(=O)Nc1nc2nc(N)ncc2cc1-c1c(Cl)cccc1Cl | 130 |  |  |  |  | 
CC(C)(C)NC(=O)Nc1nc2cc(N)ncc2cc1-c1c(Cl)cccc1Cl | 120 | 1800 |  |  |  | 
Cc1c[nH]c(/C=C2\C(=O)Nc3ccccc32)c1CCC(=O)O |  |  |  |  |  | IC50 [20]: 20000 nM
COc1cc(OC)cc(-c2cc3cnc(N)nc3nc2N)c1 | 230 | > 50000 |  |  |  | 
CNC(=O)Nc1nc2cc(N)ncc2cc1-c1cc(OC)cc(OC)c1 | 95 | > 50000 |  |  |  | 
CC(C)(C)NC(=O)Nc1nc2cc(N)ncc2cc1-c1ccccc1 | 1900 | 2600 |  |  |  | 
Nc1cc2nc(N)c(-c3c(Cl)cccc3Cl)cc2cn1 | 2800 | 35000 |  |  |  | 
Cn1c(SSc2c(C(=O)Nc3ccccc3)c3ccccc3n2C)c(C(=O)Nc2ccccc2)c2ccccc21 |  |  |  |  |  | IC50 [20]: 4500 nM
COc1cc(OC)cc(-c2cc3cnc(N)cc3nc2NC(=O)NC(C)(C)C)c1 | 42 | 38000 | 5.5 | 8500 | 1200 | IC50 [14]: > 10000 nM; IC50 [5]: 100 nM
COc1cc(OC)cc(-c2cc3cnc(N)cc3nc2N)c1 | 200 | > 50000 | 820 | 8900 | 17000 | 
COc1cc(OC)cc(-c2cc3cnc(N)nc3nc2NC(=O)NC(C)(C)C)c1 | 600 |  | 580 | > 25000 | 15000 | IC50 [14]: 1100 nM; IC50 [5]: 100 nM

— ChEMBL document CHEMBL1133506, “3-(3,5-Dimethoxyphenyl)-1,6-naphthyridine-2,7-diamines and related 2-urea derivatives are potent and selective inhibitors of the FGF receptor-1 tyrosine kinase” (J Med Chem, 2000)
